Reference: patent US20240336628A1, “NOVEL COMPOUNDS, COMPOSITIONS, AND THERAPEUTIC USES THEREOF” (Breakpoint Therapeutics GmbH, priority 2023, published 2024)

Molecular target: T1, Polθ (truncated Polθ-Hel protein containing the helicase domain 67-894) (Homo sapiens, UniProt O75417)
T1 construct: a truncated Polθ protein (Polθ-Hel containing the helicase domain (67-894))
Assay: Polθ ATPase assay (Biological Assay 1, ADP-Glo luminescence)
Format: biochemical
Details: Table B (Part B compounds); same assay as Biological Assay 1
Description: The Polθ ATPase assay was used to evaluate inhibitors of Polθ ATPase activity, in vitro. Experiments were performed using a truncated Polθ protein (Polθ-Hel containing the helicase domain (67-894), ATP and a DNA single strand Oligo (5′-CTGTCCTGCATGATG-3′) in the Polθ assay buffer (20 mM Tis-HCl (pH 8.8), MgCl2 5 mM, tween20 0.01%, NP40 0.01%, BSA 0.01%, DTT 1 mM). 2 μL of assay buffer containing Pole-Hel protein (0.5 nM) and DNA substrate (500 nM) was transferred into assay ready plates, containing 0.04 μL of compounds diluted in DMSO. After a 30 minutes incubation at 23° C. in the dark, the reaction was triggered by adding 2 μL of ATP (60 μM), in assay buffer. After 60 minutes at 23° C., 4 μl of ADP-Glo™ Reagent (Glo 1) was added followed by 40 minutes of incubation, then 8 μl of ADP-Glom kinase Detection Reagent (Glo 2) followed by 60 minutes of incubation at 23° C. Luminescence was then measured using Tecan F200 infinite plate reader. Raw data were analysed using GeneData to generate IC50 values.
The Polθ ATPase assay described in Biological Assay 1 above was used to evaluate inhibitors of Polθ ATPase activity for the compounds described in the Experimental Part B above, in vitro.

T1 sequence (O75417 67-894): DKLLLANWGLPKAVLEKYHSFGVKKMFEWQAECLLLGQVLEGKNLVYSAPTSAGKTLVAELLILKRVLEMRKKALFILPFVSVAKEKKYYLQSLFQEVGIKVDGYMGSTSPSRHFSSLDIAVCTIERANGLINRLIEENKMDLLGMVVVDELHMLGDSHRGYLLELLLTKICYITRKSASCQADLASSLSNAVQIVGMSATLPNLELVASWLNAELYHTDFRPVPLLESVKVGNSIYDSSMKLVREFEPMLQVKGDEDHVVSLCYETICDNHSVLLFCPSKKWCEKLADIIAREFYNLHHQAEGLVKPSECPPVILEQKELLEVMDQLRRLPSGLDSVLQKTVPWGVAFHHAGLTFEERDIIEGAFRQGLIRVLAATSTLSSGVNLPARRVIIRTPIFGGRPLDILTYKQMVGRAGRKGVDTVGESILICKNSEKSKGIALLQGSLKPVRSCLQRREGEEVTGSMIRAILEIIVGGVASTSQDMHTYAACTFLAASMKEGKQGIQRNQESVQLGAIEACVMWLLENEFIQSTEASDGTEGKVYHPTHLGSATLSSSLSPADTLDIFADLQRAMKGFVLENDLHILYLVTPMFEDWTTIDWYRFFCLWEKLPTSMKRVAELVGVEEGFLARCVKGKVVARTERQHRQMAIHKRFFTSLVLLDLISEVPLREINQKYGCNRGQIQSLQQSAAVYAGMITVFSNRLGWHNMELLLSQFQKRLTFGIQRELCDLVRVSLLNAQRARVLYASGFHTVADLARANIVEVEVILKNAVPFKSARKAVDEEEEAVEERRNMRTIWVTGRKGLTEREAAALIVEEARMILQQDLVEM

Question: How did the IC50 turn out when `COc1cnc(Cl)cc1-c1cn(C)c(=O)cc1C(=O)Nc1nc2cnc(N3CCC(O)CC3)nc2s1` [Example 125] was run?
Answer: The IC50 was under 100 nM.
